Results: ChEMBL document CHEMBL5108059, “Discovery of 2-Methyl-2-(4-(2-methyl-8-(1H-pyrrolo[2,3-b]pyridin-6-yl)-1H-naphtho[1,2-d]imidazol-1-yl)phenyl)propanenitrile as a Novel PI3K/mTOR Inhibitor with Enhanced Antitumor Efficacy In Vitro and In Vivo” (J Med Chem, 2022)
Calls of active or inactive are those of the source. The calls are words filed in the database; no cut-off is given here.

Columns and labels:
HeLa [1] = assay: Inhibition of PI3K/mTOR signalling pathway in human HeLa cells assessed as inhibition of Akt phosphorylation at Thr308 residue incubated for 24 hrs by Western blot analysis; format: cell-based; details: dose 0.3125-2.5 µM, DDE = dose-dependent effect
[2] = Cmax in Sprague-Dawley rat at 10 mg/kg, po measured for 24 hrs by LC-MS/MS analysis; format: ADME, organism-based; design: time 24 hrs, dose 10 mg/kg, route po; details: in vivo
HeLa [3] = assay: Induction of apoptosis in human HeLa cells assessed as late apoptotic cells at 0.3125 uM incubated for 36 hrs by Annexin V-FITC/PI staining based flow cytometric analysis (reference value: 1.4 %); format: functional
L02 = assay: Cytotoxicity against human L02 cells assessed as reduction in cell viability at 0.3125 to 10 uM incubated for 48 to 72 hrs by MTT assay; format: toxicity, cell-based; details: l02, 10 µM, dose lower 0.3125 µM, time lower 48 hrs, dose upper 10 µM, time upper 72 hrs
HCT-15 = assay: Antiproliferative activity against human HCT-15 cells with PIK3CA mutation assessed as inhibition of cell growth incubated for 48 to 72 hrs by MTT assay; format: functional, cell-based
[4] = Toxicity in BALB/c nude mouse xenografted with human SW620 cells assessed as lethality at 15 to 60 mg/kg, IG administered daily for 30 days and measured every 2 days; format: organism-based, SW-620; details: in vivo, po, 720 h, dose 15-60 mg/kg, time 30 day
HeLa [5] = assay: Antitumor activity against human HeLa cells xenografted in BALB/c nude mouse assessed as reduction in Ki67 expression in tumor administered intragastrically daily for 30 days by immunohistochemical analysis; format: functional; details: dose 15-60 mg/kg, route ig, time 30.0 day
[6] = target: Serine/threonine-protein kinase mTOR (Rattus norvegicus, UniProt P42346); assay: Inhibition of rat brain mTOR using GST-p70S6K fusion protein as substrate preincubated for 30 mins followed by ATP addition and measured after 30 mins by K-Lisa assay; format: tissue-based
SW-620 [7] = assay: Antitumor activity against human SW620 cells xenografted in BALB/c nude mouse assessed as tumor growth inhibition at 30 mg/kg, IG administered daily for 30 days and measured every 2 days relative to control; format: functional; details: SW-620, po, 720 h, time 30 day, read-out: TGI
SW-620 [8] = assay: Antitumor activity against human SW620 cells xenografted in BALB/c nude mouse assessed as tumor growth inhibition at 60 mg/kg, IG administered daily for 30 days and measured every 2 days relative to control; format: functional; details: SW-620, po, 720 h, time 30 day, read-out: TGI
[9] = Toxicity in BALB/c nude mouse xenografted with human HeLa cells assessed as pathological changes in spleen at 60 mg/kg, IG administered daily for 30 days by hematoxylin and eosin staining based microscopic analysis; format: organism-based; details: in vivo, po, 720 h, time 30 day
[10] = AUC (0 to infinity) in Sprague-Dawley rat at 10 mg/kg, po measured for 24 hrs by LC-MS/MS analysis; format: ADME, organism-based; design: time 24 hrs, dose 10 mg/kg, route po; details: in vivo
HeLa [11] = assay: Induction of apoptosis in human HeLa cells xenografted in BALB/c nude mouse at 15 to 60 mg/kg, IG administered daily for 30 days by TUNEL assay; format: functional, organism-based; details: dose 15-60 mg/kg, time 30.0 day
HeLa [12] = assay: Induction of apoptosis in human HeLa cells assessed as dead cells at 0.625 uM incubated for 36 hrs by Annexin V-FITC/PI staining based flow cytometric analysis (reference value: 0.44 %); format: functional
HeLa [13] = assay: Induction of apoptosis in human HeLa cells assessed as dead cells at 0.15625 uM incubated for 36 hrs by Annexin V-FITC/PI staining based flow cytometric analysis (reference value: 0.44 %); format: functional; details: 0.1562 µM
[14] = target: Phosphatidylinositol 4,5-bisphosphate 3-kinase catalytic subunit beta isoform (Homo sapiens, UniProt P42338); assay: Inhibition of PI3Kbeta (unknown origin) using L-alpha-phosphatidylinositol as substrate incubated for 60 mins in presence of ATP by Kinase Glo luminescence assay
HeLa [15] = assay: Induction of apoptosis in human HeLa cells assessed as late apoptotic cells at 0.625 uM incubated for 36 hrs by Annexin V-FITC/PI staining based flow cytometric analysis (reference value: 1.4 %); format: functional
[16] = AUC (0 to infinity) in Sprague-Dawley rat at 1 mg/kg, iv measured for 24 hrs by LC-MS/MS analysis; format: ADME, organism-based; design: time 24 hrs, dose 1 mg/kg, route iv; details: in vivo
[17] = target: DNA-dependent protein kinase catalytic subunit (Homo sapiens) (UniProt P78527); assay: Inhibition of DNA-PK (unknown origin) at 1 uM
[18] = Toxicity in BALB/c nude mouse xenografted with human HeLa cells assessed as pathological changes in lung at 60 mg/kg, IG administered daily for 30 days by hematoxylin and eosin staining based microscopic analysis; format: organism-based; details: in vivo, po, 720 h, time 30 day
[19] = Tmax in Sprague-Dawley rat at 10 mg/kg, po measured for 24 hrs by LC-MS/MS analysis; format: ADME, organism-based; details: in vivo

Chain of DNA-dependent protein kinase catalytic subunit (Homo sapiens) (P78527 whole entry): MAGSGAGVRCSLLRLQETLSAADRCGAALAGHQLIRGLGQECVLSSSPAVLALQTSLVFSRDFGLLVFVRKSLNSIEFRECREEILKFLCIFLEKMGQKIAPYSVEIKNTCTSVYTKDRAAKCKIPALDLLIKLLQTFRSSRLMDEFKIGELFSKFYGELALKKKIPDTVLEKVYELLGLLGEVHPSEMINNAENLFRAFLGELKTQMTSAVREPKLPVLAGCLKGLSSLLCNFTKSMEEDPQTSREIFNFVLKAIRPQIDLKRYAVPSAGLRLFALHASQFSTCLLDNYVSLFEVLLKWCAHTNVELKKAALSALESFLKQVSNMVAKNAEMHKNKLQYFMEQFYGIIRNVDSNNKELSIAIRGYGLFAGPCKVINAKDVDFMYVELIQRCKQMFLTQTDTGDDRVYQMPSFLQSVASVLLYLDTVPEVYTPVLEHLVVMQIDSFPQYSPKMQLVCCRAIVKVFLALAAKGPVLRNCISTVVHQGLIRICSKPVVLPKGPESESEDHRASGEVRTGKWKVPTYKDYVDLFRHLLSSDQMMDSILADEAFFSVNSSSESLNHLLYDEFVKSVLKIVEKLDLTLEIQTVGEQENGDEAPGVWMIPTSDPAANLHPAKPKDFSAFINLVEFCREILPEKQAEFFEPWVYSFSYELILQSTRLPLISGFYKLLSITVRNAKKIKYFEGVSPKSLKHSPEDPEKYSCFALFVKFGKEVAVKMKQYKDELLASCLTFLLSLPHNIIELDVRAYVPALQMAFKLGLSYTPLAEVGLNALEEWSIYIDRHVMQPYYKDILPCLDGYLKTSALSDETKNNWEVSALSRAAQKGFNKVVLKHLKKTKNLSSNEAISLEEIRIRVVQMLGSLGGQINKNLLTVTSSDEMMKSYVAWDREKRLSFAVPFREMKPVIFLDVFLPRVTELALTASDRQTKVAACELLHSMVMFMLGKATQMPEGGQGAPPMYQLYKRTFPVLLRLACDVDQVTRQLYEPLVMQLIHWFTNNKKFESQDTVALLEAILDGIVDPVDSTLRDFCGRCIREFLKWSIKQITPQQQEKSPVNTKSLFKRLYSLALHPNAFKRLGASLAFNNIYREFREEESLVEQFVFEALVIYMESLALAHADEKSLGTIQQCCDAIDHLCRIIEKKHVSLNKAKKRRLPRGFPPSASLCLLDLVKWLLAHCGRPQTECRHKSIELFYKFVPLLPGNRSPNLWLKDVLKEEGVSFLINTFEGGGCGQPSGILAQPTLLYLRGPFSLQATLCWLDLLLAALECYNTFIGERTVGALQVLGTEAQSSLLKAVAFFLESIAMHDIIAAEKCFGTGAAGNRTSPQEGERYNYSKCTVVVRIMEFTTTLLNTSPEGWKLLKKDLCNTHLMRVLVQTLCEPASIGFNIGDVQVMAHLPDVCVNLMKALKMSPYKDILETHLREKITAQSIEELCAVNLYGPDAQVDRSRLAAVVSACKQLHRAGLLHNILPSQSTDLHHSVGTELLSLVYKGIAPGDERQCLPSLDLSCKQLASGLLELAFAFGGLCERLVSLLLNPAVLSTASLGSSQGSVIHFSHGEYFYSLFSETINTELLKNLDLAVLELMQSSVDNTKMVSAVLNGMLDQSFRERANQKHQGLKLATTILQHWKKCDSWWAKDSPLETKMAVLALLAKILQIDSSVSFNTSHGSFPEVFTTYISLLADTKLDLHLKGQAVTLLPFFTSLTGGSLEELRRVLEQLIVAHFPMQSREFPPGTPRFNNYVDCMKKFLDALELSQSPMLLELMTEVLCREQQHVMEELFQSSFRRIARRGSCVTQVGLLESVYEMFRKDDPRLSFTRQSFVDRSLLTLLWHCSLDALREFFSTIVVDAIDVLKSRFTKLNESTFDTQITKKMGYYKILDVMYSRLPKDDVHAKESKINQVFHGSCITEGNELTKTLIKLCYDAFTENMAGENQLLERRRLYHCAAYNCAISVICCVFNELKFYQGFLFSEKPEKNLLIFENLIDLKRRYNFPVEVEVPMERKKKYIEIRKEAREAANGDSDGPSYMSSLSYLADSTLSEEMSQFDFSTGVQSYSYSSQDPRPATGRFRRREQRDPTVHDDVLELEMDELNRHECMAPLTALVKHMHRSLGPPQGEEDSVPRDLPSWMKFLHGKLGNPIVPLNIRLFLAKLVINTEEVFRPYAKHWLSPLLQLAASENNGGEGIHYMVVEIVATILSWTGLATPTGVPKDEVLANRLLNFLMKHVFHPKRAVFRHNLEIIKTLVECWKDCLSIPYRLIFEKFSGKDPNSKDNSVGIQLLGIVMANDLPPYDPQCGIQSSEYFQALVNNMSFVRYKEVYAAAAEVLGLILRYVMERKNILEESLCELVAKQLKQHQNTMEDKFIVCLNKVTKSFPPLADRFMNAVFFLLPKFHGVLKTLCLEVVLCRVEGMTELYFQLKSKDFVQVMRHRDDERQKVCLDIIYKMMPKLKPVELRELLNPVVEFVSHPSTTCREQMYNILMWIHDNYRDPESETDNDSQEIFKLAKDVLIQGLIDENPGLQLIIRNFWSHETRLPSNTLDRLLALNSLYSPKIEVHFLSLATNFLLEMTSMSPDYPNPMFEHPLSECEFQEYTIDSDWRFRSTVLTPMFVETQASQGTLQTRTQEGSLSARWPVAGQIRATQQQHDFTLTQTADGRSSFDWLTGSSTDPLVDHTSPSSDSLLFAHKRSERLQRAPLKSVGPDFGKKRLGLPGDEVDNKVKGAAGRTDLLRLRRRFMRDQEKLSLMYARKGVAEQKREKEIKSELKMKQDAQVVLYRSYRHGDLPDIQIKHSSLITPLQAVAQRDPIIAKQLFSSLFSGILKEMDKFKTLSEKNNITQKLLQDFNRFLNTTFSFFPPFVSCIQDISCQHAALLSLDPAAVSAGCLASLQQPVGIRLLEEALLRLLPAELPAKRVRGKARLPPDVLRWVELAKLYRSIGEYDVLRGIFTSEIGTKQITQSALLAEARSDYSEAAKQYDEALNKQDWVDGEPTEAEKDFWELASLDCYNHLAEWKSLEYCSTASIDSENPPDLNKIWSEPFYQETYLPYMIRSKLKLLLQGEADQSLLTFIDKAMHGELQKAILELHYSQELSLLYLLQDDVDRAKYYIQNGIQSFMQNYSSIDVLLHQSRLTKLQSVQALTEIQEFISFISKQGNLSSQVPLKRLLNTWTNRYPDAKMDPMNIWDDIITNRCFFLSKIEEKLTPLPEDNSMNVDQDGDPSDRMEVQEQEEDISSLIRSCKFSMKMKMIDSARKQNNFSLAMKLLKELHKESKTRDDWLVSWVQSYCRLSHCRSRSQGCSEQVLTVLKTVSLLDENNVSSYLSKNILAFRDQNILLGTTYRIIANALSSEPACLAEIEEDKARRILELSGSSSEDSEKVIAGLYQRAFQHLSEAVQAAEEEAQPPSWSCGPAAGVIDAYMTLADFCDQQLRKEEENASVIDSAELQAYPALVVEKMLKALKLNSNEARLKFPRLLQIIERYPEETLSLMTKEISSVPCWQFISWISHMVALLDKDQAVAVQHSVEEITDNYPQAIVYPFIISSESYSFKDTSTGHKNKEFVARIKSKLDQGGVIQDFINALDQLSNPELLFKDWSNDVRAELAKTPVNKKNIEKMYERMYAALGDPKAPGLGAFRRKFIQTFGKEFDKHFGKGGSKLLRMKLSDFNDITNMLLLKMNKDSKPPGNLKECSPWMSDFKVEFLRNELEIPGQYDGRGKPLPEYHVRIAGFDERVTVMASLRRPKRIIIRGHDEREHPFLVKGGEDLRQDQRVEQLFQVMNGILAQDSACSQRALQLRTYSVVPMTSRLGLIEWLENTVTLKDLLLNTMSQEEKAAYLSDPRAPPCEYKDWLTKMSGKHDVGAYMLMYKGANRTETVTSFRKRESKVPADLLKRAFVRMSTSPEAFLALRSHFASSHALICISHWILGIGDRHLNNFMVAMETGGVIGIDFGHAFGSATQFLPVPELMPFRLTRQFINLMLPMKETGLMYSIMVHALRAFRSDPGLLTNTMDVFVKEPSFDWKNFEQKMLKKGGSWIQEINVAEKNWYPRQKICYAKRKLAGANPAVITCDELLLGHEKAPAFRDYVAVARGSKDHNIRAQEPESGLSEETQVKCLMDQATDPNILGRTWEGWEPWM
Chain of Phosphatidylinositol 4,5-bisphosphate 3-kinase catalytic subunit beta isoform (P42338 whole entry, canonical isoform): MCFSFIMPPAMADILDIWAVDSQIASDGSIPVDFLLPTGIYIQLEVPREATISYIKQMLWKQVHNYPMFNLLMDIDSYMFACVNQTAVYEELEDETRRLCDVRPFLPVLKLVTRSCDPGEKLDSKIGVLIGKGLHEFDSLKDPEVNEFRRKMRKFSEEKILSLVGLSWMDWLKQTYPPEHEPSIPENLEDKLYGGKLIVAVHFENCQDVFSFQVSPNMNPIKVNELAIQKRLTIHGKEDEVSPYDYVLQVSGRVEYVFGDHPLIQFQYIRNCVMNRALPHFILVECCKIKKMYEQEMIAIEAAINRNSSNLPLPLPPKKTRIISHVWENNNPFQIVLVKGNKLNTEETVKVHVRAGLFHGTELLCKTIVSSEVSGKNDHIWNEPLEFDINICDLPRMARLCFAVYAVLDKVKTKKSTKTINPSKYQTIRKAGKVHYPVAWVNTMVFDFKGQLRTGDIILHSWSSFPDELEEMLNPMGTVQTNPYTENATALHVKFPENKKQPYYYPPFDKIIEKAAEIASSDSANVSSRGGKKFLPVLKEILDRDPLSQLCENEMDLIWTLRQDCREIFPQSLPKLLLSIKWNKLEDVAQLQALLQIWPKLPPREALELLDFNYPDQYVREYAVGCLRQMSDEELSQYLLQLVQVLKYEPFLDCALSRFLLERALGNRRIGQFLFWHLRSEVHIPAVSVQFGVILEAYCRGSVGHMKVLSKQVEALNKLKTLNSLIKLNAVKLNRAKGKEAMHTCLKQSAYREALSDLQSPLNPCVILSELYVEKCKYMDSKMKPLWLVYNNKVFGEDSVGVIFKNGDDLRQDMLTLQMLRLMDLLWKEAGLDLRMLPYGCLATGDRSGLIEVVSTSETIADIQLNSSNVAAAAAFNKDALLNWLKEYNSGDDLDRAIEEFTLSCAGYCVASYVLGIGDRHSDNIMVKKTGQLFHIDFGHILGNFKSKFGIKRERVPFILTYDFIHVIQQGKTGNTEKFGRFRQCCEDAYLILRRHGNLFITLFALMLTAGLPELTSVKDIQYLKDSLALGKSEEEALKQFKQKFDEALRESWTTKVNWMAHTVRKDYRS

For `Cc1nc2cnc3ccc(-c4cnc5[nH]ccc5c4)cc3c2n1-c1ccc(C(C)(C)C#N)nc1`, the inhibition (HeLa [1]) was “Dde”, the Cmax [2] was 2995 ng/mL and the Activity (HeLa [3]) was 3%. For the same compound, the Activity (L02) was “Non-Toxic”, the IC50 (HCT-15) was 170 nM and the Activity [4] was “Non-Toxic”. For the same compound, the Activity (HeLa [5]) was “Active”, the IC50 [6] was 20.7 nM and the inhibition in vivo at 30 mg/kg (SW-620 [7]) was 70.8%. The inhibition in vivo at 60 mg/kg (SW-620 [8]) was 81%, the Activity [9] was “Non-Toxic” and the AUC [10] was 7620 ng·h/mL. For the same compound, the Activity (HeLa [11]) was “Active”, the Activity (HeLa [12]) was 2.75% and the Activity (HeLa [13]) was 0.4%. For the same compound, the IC50 [14] was 75 nM, the Activity (HeLa [15]) was 8.81% and the AUC [16] was 992 ng·h/mL. For the same compound, the inhibition [17] was “Active”, the Activity [18] was “Non-Toxic” and the Tmax [19] was 45 min.
